According to the supplement of paper PMC6045584:
± gives the standard deviation of the averaged measurements.

Assays:
[1] = compound: COc1ccc(-c2cc3c(C)nc(N)nc3n([C@H]3CC[C@H](OCCO)CC3)c2=O)cn1; test: surviving fraction relative to DMSO-only wells; higher = less growth inhibition; conditions: exposure time: 5 days
Summary of the method: (§1)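 Viability values are CellTiter-Glo luminescence readings, given as surviving fraction against the median of DMSO-only wells. The readings were taken after 10 minutes at room temperature, following five days of continuous exposure to inhibitors at 0.5, 1, 5, 10, 50, 100, 500 and 1000 nM that began 24 hours after log-phase tumour cell lines were seeded at 250–500 cells per well in 384-well plates. Every line was screened three times and kept only if replicate Pearson r >0.7 and median Z' >0.3.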

[2] = compound: Cn1c(=O)n(-c2ccc(C(C)(C)C#N)cc2)c2c3cc(-c4cnc5ccccc5c4)ccc3ncc21 [BEZ-235]; test: as above; conditions: exposure time: 5 days
Summary of the method: as §1

Row | Test System | surviving fraction ([1]; 0.5 nM) | surviving fraction ([1]; 1 nM) | surviving fraction ([1]; 5 nM) | surviving fraction ([1]; 10 nM) | surviving fraction ([1]; 50 nM) | surviving fraction ([1]; 100 nM) | surviving fraction ([1]; 500 nM) | surviving fraction ([1]; 1000 nM) | surviving fraction ([2]; 0.5 nM) | surviving fraction ([2]; 1 nM) | surviving fraction ([2]; 5 nM) | surviving fraction ([2]; 10 nM) | surviving fraction ([2]; 50 nM) | surviving fraction ([2]; 100 nM) | surviving fraction ([2]; 500 nM) | surviving fraction ([2]; 1000 nM)
1 | SG27 HEADNECK | 1.03 ± 0.11 | 1.02 ± 0.12 | 0.945 ± 0.042 | 0.935 ± 0.11 | 0.834 ± 0.21 | 0.703 ± 0.048 | 0.424 ± 0.0087 | 0.357 ± 0.039 | 0.989 ± 0.032 | 1.06 ± 0.041 | 0.888 ± 0.063 | 1.04 ± 0.049 | 0.91 ± 0.084 | 0.908 ± 0.065 | 0.717 ± 0.061 | 0.611 ± 0.04
2 | SG28 HEADNECK | 1.042 ± 0.0068 | 1.033 ± 0.0092 | 0.998 ± 0.1 | 0.899 ± 0.058 | 0.691 ± 0.036 | 0.621 ± 0.057 | 0.3 ± 0.0047 | 0.242 ± 0.005 | 1.13 ± 0.053 | 1.09 ± 0.085 | 0.945 ± 0.2 | 0.965 ± 0.063 | 0.762 ± 0.053 | 0.632 ± 0.087 | 0.459 ± 0.039 | 0.342 ± 0.032
3 | SG31 HEADNECK | 0.99 ± 0.13 | 0.942 ± 0.1 | 0.933 ± 0.08 | 0.766 ± 0.057 | 0.637 ± 0.036 | 0.463 ± 0.054 | 0.25 ± 0.014 | 0.162 ± 0.023 | 1.1 ± 0.15 | 1.138 ± 0.0095 | 0.946 ± 0.091 | 1.02 ± 0.15 | 0.602 ± 0.088 | 0.569 ± 0.042 | 0.354 ± 0.029 | 0.289 ± 0.028
4 | SG32 HEADNECK | 1.08 ± 0.076 | 1.09 ± 0.38 | 1.02 ± 0.11 | 1.34 ± 0.31 | 1.04 ± 0.095 | 0.982 ± 0.14 | 0.432 ± 0.086 | 0.263 ± 0.044 | 1.1 ± 0.18 | 1.03 ± 0.1 | 1.42 ± 0.26 | 1.25 ± 0.13 | 0.861 ± 0.061 | 0.497 ± 0.083 | 0.255 ± 0.013 | 0.176 ± 0.026
5 | SG43 HEADNECK | 0.954 ± 0.097 | 1 ± 0.041 | 0.747 ± 0.054 | 0.613 ± 0.06 | 0.506 ± 0.046 | 0.427 ± 0.032 | 0.266 ± 0.02 | 0.168 ± 0.007 | 0.984 ± 0.18 | 1.23 ± 0.35 | 0.946 ± 0.1 | 0.956 ± 0.048 | 0.763 ± 0.12 | 0.77 ± 0.11 | 0.555 ± 0.037 | 0.36 ± 0.036
6 | SIHA CERVIX | 1.01 ± 0.032 | 1.02 ± 0.07 | 0.974 ± 0.062 | 0.93 ± 0.063 | 0.656 ± 0.025 | 0.536 ± 0.024 | 0.232 ± 0.0035 | 0.161 ± 0.011 | 1.08 ± 0.1 | 1.14 ± 0.099 | 1.07 ± 0.044 | 1.03 ± 0.046 | 0.642 ± 0.064 | 0.485 ± 0.029 | 0.237 ± 0.008 | 0.222 ± 0.016
7 | SJSA1 BONE | 1.04 ± 0.035 | 0.976 ± 0.023 | 0.989 ± 0.058 | 0.941 ± 0.027 | 0.743 ± 0.059 | 0.671 ± 0.028 | 0.2 ± 0.011 | 0.116 ± 0.0015 | 1.07 ± 0.064 | 1.04 ± 0.05 | 1.035 ± 0.004 | 1.02 ± 0.098 | 0.803 ± 0.031 | 0.623 ± 0.013 | 0.249 ± 0.015 | 0.206 ± 0.012
8 | SKBR3 BREAST | 0.863 ± 0.093 | 0.88 ± 0.073 | 0.833 ± 0.23 | 0.763 ± 0.15 | 0.434 ± 0.073 | 0.204 ± 0.043 | 0.058 ± 0.0053 | 0.0507 ± 0.0047 | 1.07 ± 0.18 | 0.925 ± 0.035 | 0.88 ± 0.046 | 1.07 ± 0.018 | 0.786 ± 0.097 | 0.564 ± 0.039 | 0.141 ± 0.014 | 0.116 ± 0.0092
9 | SNU475 LIVER | 0.94 ± 0.013 | 0.951 ± 0.022 | 0.891 ± 0.041 | 0.865 ± 0.012 | 0.625 ± 0.014 | 0.404 ± 0.036 | 0.127 ± 0.0076 | 0.0823 ± 0.0011 | 1.03 ± 0.038 | 1 ± 0.07 | 0.921 ± 0.036 | 0.932 ± 0.039 | 0.423 ± 0.018 | 0.285 ± 0.0051 | 0.137 ± 0.015 | 0.148 ± 0.0081
10 | SUM44 BREAST | 0.914 ± 0.026 | 0.974 ± 0.044 | 1.01 ± 0.027 | 0.957 ± 0.04 | 0.864 ± 0.043 | 0.747 ± 0.017 | 0.225 ± 0.028 | 0.151 ± 0.0051 | 1.03 ± 0.046 | 1.02 ± 0.067 | 1.04 ± 0.025 | 0.972 ± 0.021 | 0.724 ± 0.026 | 0.422 ± 0.072 | 0.104 ± 0.0081 | 0.099 ± 0.017
